Assay results from publication PMC11989005, “The Elongation Factor 1 Alpha Promoter Drives the Functional Expression of Kir2A in Plutella xylostella Cells” (International Journal of Molecular Sciences, 2025).
Where two headings read alike, the source gives them in different places.

Molecular target: T1, PxKir2A (Plutella xylostella, UniProt A0A7L7TNR0)
T1 construct: gene kir2; full-length ORF in pEF1alpha-PxKir2A, no tag stated; transiently expressed in P. xylostella Px4-2 cells, EGFP co-transfected from a separate plasmid
Assay: whole-cell patch clamp, inhibition of inward K+ current
Assay type: cell-based

T1 sequence (A0A7L7TNR0 entry or part of it): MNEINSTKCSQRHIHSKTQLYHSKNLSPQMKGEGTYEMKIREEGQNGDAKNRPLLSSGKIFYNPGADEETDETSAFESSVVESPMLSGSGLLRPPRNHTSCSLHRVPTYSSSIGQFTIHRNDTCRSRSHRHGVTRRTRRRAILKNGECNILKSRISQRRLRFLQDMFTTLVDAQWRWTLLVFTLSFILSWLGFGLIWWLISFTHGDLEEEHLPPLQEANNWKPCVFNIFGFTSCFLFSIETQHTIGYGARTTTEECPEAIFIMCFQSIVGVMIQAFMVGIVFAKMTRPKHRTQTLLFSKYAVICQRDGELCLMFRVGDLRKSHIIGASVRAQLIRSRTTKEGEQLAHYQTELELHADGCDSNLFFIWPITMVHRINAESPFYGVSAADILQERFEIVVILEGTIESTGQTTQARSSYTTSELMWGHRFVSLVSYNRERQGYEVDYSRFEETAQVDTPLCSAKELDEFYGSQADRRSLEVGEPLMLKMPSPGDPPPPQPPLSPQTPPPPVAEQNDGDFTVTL

Row | IC50 (bath 50 mM KCl, pH 6.4, 25 °C, holding -20 mV, steps -120 to +20 mV, DMSO <0.05%, read-out: IC50) [nM] | Structure (SMILES) | IC50 [nM]
1 | 151 | CCC(=O)N1c2ccc(S(=O)(=O)Nc3cccc(OC)c3)cc2CC1C (centres unmarked) [VU625] | –
2 | – | O=[N+]([O-])c1ccc(CN2CCOCCOCCN(Cc3ccc([N+](=O)[O-])cc3)CCOCC2)cc1 [VU590] | 634
